According to PMC6943437, “Coupling the Antimalarial Cell Penetrating Peptide TP10 to Classical Antimalarial Drugs Primaquine and Chloroquine Produces Strongly Hemolytic Conjugates” (Molecules, 2019):
“And” between values parts separate entries of the source, which are not always exact repeats. Equal entries are not always repeated. *1 amine or outer side, *2 acyl side, *3 side chain or, on linkers, in order; H or OH if unused. Where a SMILES comes first, the peptide text is derived from it. The star is where a group is joined. NH(CH2)4NH(7-Cl-4-quinolyl) = Clc1ccc2c(NCCCCN*)ccnc2c1; Suc = O=C(CCC(=O)[*:2])[*:1]

tested on: P. falciparum W2; assay: not given; type: cell-based; conditions: P. falciparum W2 (CQ-resistant), 48 h, n = 3
Procedure: All conjugates and their respective parent CPP (Table 1), were screened in vitro for their antiplasmodial activity, using the CQ-resistant P. falciparum W2 strain. The primaquine analogue to 5a, i.e., conjugate 3 where the CPP is TP10, PQ-C4-TP10 (3a), was also included in the study for comparison.
Synchronized ring-stage P. falciparum parasites (W2 strain) were incubated with test compounds for 48 h in Roswell Park Memorial Institute (RPMI) 1640 medium containing 10% human serum or 0.5% Albumax serum substitute. Parasites were then fixed with 1% formaldehyde in phosphate-buffered saline (PBS), pH 7.4, for […] at RT and labeled with YOYO-1 (1 nM; molecular probes) in 0.1% Triton X-100 in PBS. Parasitemias were determined by flow cytometry, from dot plots (forward scatter versus fluorescence). For 50% inhibitory concentration (IC50) determinations, dose-response studies were performed, with the values normalized to percent control activity, and IC50s were calculated using GraphPad Prism, with data fitted by nonlinear regression.

Compound | IC50
CC[C@H](C)[C@H](NC(=O)[C@H](CCCCN)NC(=O)[C@H](CCCCN)NC(=O)[C@H](C)NC(=O)[C@H](CC(C)C)NC(=O)[C@H](C)NC(=O)[C@H](C)NC(=O)[C@H](CC(C)C)NC(=O)[C@H](C)NC(=O)[C@H](CCCCN)NC(=O)[C@H](CC(C)C)NC(=O)[C@H](CC(N)=O)NC(=O)[C@@H](NC(=O)[C@H](CCCCN)NC(=O)CNC(=O)[C@H](CC(C)C)NC(=O)[C@H](CC(C)C)NC(=O)[C@H](Cc1ccc(O)cc1)NC(=O)CNC(=O)[C@H](C)NC(=O)[C@H](CO)NC(=O)[C@H](CC(N)=O)NC(=O)[C@H](CC(C)C)NC(=O)[C@@H](NC(=O)[C@H](Cc1c[nH]c2ccccc12)NC(=O)CNC(=O)CCC(=O)NCCCCNc1ccnc2cc(Cl)ccc12)[C@@H](C)O)[C@@H](C)CC)C(=O)N[C@@H](CC(C)C)C(N)=O [5b] | 5.2 µM
CC[C@H](C)[C@H](NC(=O)[C@H](CC(C)C)NC(=O)[C@H](CCCNC(=N)N)NC(=O)[C@H](CCCCN)NC(=O)[C@H](CCC(N)=O)NC(=O)[C@H](CCCNC(=N)N)NC(=O)[C@@H](NC(=O)[C@H](CC(C)C)NC(=O)[C@H](CCCNC(=N)N)NC(=O)[C@H](CCCCN)NC(=O)[C@H](CCC(N)=O)NC(=O)[C@H](CCCNC(=N)N)NC(=O)[C@@H](NC(=O)[C@H](CC(C)C)NC(=O)[C@H](CCCNC(=N)N)NC(=O)[C@H](CCCCN)NC(=O)[C@H](CCC(N)=O)NC(=O)[C@H](CCCNC(=N)N)NC(=O)CCC(=O)NCCCCNc1ccnc2cc(Cl)ccc12)[C@@H](C)CC)[C@@H](C)CC)C(N)=O [5d] ({NH(CH2)4NH(7-Cl-4-quinolyl)-Suc}-RQKRLIRQKRLIRQKRLI-NH2) | > 10 µM
N=C(N)NCCC[C@H](NC(=O)[C@H](CCCNC(=N)N)NC(=O)[C@H](CCCNC(=N)N)NC(=O)[C@H](CCCNC(=N)N)NC(=O)[C@H](CCCNC(=N)N)NC(=O)[C@H](CCCNC(=N)N)NC(=O)[C@H](CCCNC(=N)N)NC(=O)[C@H](CCCNC(=N)N)NC(=O)[C@H](CCCNC(=N)N)NC(=O)CCC(=O)NCCCCNc1ccnc2cc(Cl)ccc12)C(N)=O [5h] | > 10 µM
H-RQKRLIRQKRLIRQKRLI-NH2 [DPT-sh2] | > 10 µM
N=C(N)NCCC[C@H](NC(=O)CN)C(=O)N[C@@H](CCCCN)C(=O)N[C@@H](CCCCN)C(=O)N[C@@H](CCCNC(=N)N)C(=O)N[C@@H](CCCNC(=N)N)C(=O)N[C@@H](CCC(N)=O)C(=O)N[C@@H](CCCNC(=N)N)C(=O)N[C@@H](CCCNC(=N)N)C(=O)N[C@@H](CCCNC(=N)N)C(=O)N1CCC[C@H]1C(=O)N1CCC[C@H]1C(=O)N[C@@H](CCC(N)=O)C(N)=O [TAT] | > 10 µM
CC[C@H](C)[C@H](NC(=O)[C@H](CCCNC(=N)N)NC(=O)[C@@H](NC(=O)[C@H](C)NC(=O)[C@@H](NC(=O)[C@@H](NC(=O)[C@H](CC(C)C)NC(=O)[C@H](CCCNC(=N)N)NC(=O)[C@@H](NC(=O)CCC(=O)NCCCCNc1ccnc2cc(Cl)ccc12)C(C)C)[C@@H](C)CC)C(C)C)C(C)C)C(=O)N[C@@H](Cc1c[nH]c2ccccc12)C(=O)N[C@@H](CCCNC(=N)N)C(=O)N[C@@H](CCCNC(=N)N)C(N)=O [5e] ({NH(CH2)4NH(7-Cl-4-quinolyl)-Suc}-VRLIVAVRIWRR-NH2) | > 10 µM
CC[C@H](C)[C@H](NC(=O)[C@H](CCCCN)NC(=O)[C@H](CCCCN)NC(=O)[C@H](C)NC(=O)[C@H](CC(C)C)NC(=O)[C@H](C)NC(=O)[C@H](C)NC(=O)[C@H](CC(C)C)NC(=O)[C@H](C)NC(=O)[C@H](CCCCN)NC(=O)[C@H](CC(C)C)NC(=O)[C@H](CC(N)=O)NC(=O)[C@@H](NC(=O)[C@H](CCCCN)NC(=O)CNC(=O)[C@H](CC(C)C)NC(=O)[C@H](CC(C)C)NC(=O)[C@H](Cc1ccc(O)cc1)NC(=O)CNC(=O)[C@H](C)NC(=O)[C@H](CO)NC(=O)[C@H](CC(N)=O)NC(=O)[C@H](CC(C)C)NC(=O)[C@@H](NC(=O)[C@H](Cc1c[nH]c2ccccc12)NC(=O)CN)[C@@H](C)O)[C@@H](C)CC)C(=O)N[C@@H](CC(C)C)C(N)=O [Transportan] | 3.05 µM and 3.1 µM

tested on: not listed separately; assay: In vitro hemolytic activity on healthy erythrocytes; type: cell-based; conditions: healthy erythrocytes (hRBC); 10 µM, 1 h, hRBC only; dash with footnote c = hemolysis not detected; read-out: % hemolysis at 10 µM ± SD (n = 3), hRBC
Procedure: (§1) For positive and negative controls, 1% Triton X-100 and PBS were added, respectively. After this period, the plates were centrifuged and supernatants transferred to another plate. Supernatant absorbance at 450 nm was assessed in a multi-mode microplate reader (Triad, Dynex Technologies, Chantilly, VA, USA) and values were treated using the following equation (1):(1) % Hemolysis=Abs−Abs(negative control)/Abs(positive control)−Abs(negative control)

Compound | hemolysis at 1 h, 10 µM
CC[C@H](C)[C@H](NC(=O)[C@H](CCCCNC(=O)CCC(=O)NCCCCNc1ccnc2cc(Cl)ccc12)NC(=O)[C@H](CCCCN)NC(=O)[C@H](C)NC(=O)[C@H](CC(C)C)NC(=O)[C@H](C)NC(=O)[C@H](C)NC(=O)[C@H](CC(C)C)NC(=O)[C@H](C)NC(=O)[C@H](CCCCN)NC(=O)[C@H](CC(C)C)NC(=O)[C@H](CC(N)=O)NC(=O)[C@@H](NC(=O)[C@H](CCCCN)NC(=O)CNC(=O)[C@H](CC(C)C)NC(=O)[C@H](CC(C)C)NC(=O)[C@H](Cc1ccc(O)cc1)NC(=O)CNC(=O)[C@H](C)N)[C@@H](C)CC)C(=O)N[C@@H](CC(C)C)C(N)=O [compound 13] | 50 ± 2%
CC[C@H](C)[C@H](NC(=O)[C@H](CCCCN)NC(=O)[C@H](CCCCN)NC(=O)[C@H](C)NC(=O)[C@H](CC(C)C)NC(=O)[C@H](C)NC(=O)[C@H](C)NC(=O)[C@H](CC(C)C)NC(=O)[C@H](C)NC(=O)[C@H](CCCCN)NC(=O)[C@H](CC(C)C)NC(=O)[C@H](CC(N)=O)NC(=O)[C@@H](NC(=O)[C@H](CCCCN)NC(=O)CNC(=O)[C@H](CC(C)C)NC(=O)[C@H](CC(C)C)NC(=O)[C@H](Cc1ccc(O)cc1)NC(=O)CNC(=O)[C@H](C)N)[C@@H](C)CC)C(=O)N[C@@H](CC(C)C)C(=O)N[C@@H](CSSC[C@H](N)C(=O)NCCCC(C)Nc1cc(OC)cc2cccnc12)C(N)=O (some centres unmarked) [14′] | 99.7 ± 0.4%

tested on: not listed separately; assay: In vitro hemolytic activity on Plasmodium-infected erythrocyte cultures; type: cell-based; conditions: cultures with 3% PiRBC, dash with footnote c = hemolysis not detected, read-out: % hemolysis at 10 µM ± SD (n = 3), PiRBC
Procedure: as §1

Compound | hemolysis at 1 h, 10 µM
CC[C@H](C)[C@H](NC(=O)[C@H](CCCCNC(=O)CCC(=O)NCCCCNc1ccnc2cc(Cl)ccc12)NC(=O)[C@H](CCCCN)NC(=O)[C@H](C)NC(=O)[C@H](CC(C)C)NC(=O)[C@H](C)NC(=O)[C@H](C)NC(=O)[C@H](CC(C)C)NC(=O)[C@H](C)NC(=O)[C@H](CCCCN)NC(=O)[C@H](CC(C)C)NC(=O)[C@H](CC(N)=O)NC(=O)[C@@H](NC(=O)[C@H](CCCCN)NC(=O)CNC(=O)[C@H](CC(C)C)NC(=O)[C@H](CC(C)C)NC(=O)[C@H](Cc1ccc(O)cc1)NC(=O)CNC(=O)[C@H](C)N)[C@@H](C)CC)C(=O)N[C@@H](CC(C)C)C(N)=O [compound 13] | 41 ± 2%
CC[C@H](C)[C@H](NC(=O)[C@H](CCCCN)NC(=O)[C@H](CCCCN)NC(=O)[C@H](C)NC(=O)[C@H](CC(C)C)NC(=O)[C@H](C)NC(=O)[C@H](C)NC(=O)[C@H](CC(C)C)NC(=O)[C@H](C)NC(=O)[C@H](CCCCN)NC(=O)[C@H](CC(C)C)NC(=O)[C@H](CC(N)=O)NC(=O)[C@@H](NC(=O)[C@H](CCCCN)NC(=O)CNC(=O)[C@H](CC(C)C)NC(=O)[C@H](CC(C)C)NC(=O)[C@H](Cc1ccc(O)cc1)NC(=O)CNC(=O)[C@H](C)N)[C@@H](C)CC)C(=O)N[C@@H](CC(C)C)C(=O)N[C@@H](CSSC[C@H](N)C(=O)NCCCC(C)Nc1cc(OC)cc2cccnc12)C(N)=O (some centres unmarked) [14′] | 72 ± 9%
